Measured values reported in patent US10107798B2, “Methods of chemotype evolution” (SUNESIS PHARMACEUTICALS, INC., priority 2008, dated 2018).
pEC50, pIC50: −log10 of the molar value. Several values for one entry are separate records, joined by “and”; a condition that tells them apart may be missing. Equal entries are not always repeated.

Each compound was assayed against T1, Aurora A (Homo sapiens, UniProt O14965) (assay: Aurora A activity in cell based assays). Conditions: inhibition of Aurora A activity in cell based assays.
T1 sequence (O14965 1-403): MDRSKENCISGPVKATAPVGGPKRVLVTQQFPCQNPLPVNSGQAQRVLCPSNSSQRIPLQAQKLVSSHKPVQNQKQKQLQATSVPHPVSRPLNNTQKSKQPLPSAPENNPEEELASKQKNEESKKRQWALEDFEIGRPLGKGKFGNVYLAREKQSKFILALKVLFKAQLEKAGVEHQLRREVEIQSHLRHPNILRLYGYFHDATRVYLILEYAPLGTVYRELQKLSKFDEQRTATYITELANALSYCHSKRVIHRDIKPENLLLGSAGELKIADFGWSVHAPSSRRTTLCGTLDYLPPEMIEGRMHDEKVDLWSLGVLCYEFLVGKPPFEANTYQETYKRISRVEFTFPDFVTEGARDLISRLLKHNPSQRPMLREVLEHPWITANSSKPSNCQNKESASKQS
In the case of `COc1ccc(C(=O)Nc2ccccc2)cc1NC(=O)CCSc1ncnc(N)c1Br` [Compound 15], the pEC50 was 6.00.
With `Nc1ncnc(NCCc2cnc(NC(=O)Nc3cccc(C(F)(F)F)c3)s2)c1Br` [Compound 18] the pEC50 was 7.30.

Each compound was assayed against T2, Humanized mouse Aurora A (amino acids 107-403) (Mus musculus, UniProt P97477) (assay: Aurora A kinase assay (IMAP fluorescence polarization, FAM-PKAtide, 10 μM ATP)). Conditions: Table 1; disulfide chemistry: bait, fragments, unpurified reaction mixtures and purified ligand; relative to concentration of fragment molecule; read-out: IC50.
T2 sequence (P97477 1-395 N164G/K218R/M280L): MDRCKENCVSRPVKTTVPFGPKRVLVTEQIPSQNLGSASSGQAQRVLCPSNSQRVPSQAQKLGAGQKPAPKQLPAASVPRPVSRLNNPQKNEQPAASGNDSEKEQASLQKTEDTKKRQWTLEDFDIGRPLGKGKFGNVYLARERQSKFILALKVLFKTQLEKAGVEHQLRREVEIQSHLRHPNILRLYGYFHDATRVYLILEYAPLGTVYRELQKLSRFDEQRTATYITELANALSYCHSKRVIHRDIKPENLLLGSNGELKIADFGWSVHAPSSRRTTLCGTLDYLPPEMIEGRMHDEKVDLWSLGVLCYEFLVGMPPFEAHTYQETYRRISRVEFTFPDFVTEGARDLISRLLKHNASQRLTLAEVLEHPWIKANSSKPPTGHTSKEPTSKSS
Assay type: biochemical
Procedure: Aurora A Kinase Assay: Humanized mouse Aurora A (amino acids 107-403) was expressed in E. coli as described herein. […] The kinase reaction was initiated by adding Aurora A at a final concentration of 0.3 nM and incubated at 21° C. for 30 min. As a positive control for enzyme activity, the reaction mixture was added to DMSO and as a negative control for enzyme activity, the reaction mixture was added to Compound 1 at a final concentration of 5 μM. Both control reactions were conducted in triplicate. To detect phosphorylated PKAtide, the kinase reaction was combined with Progressive Binding Solution (1:400 Progressive Binding Reagent, 1× Buffer A, Molecular Devices) in a 1:3 ratio. The mixture was incubated for 30 min at 25° C. and the plate was scanned on an Analyst AD with excitation at 485 nm and emission at 530 nm. The fluorescence polarization value “P” is defined by equation (1) below, where “Fpar” is the fluorescence intensity parallel to the excitation plane and “Fperp” is the fluorescence intensity perpendicular to the excitation plane. The value “mP” was generated by multiplying the P value for each reaction well by a factor of 1000. The percent relative enzymatic activity (“Y” values) was calculated by normalizing the mP value for each well to the average positive control. Relative enzymatic activity values were plotted as a function of the logarithm of compound concentration (“x”) and […] values were generated in GraphPad Prism software version 4.01 using Equation (2), where “x” is the logarithm of compound concentration and “Top”, “Bottom” and “HillSlope” are curve parameters calculated by the software. IC50 values were calculated as the concentration of compound at which enzymatic activity is 50%.
Fragment Library Pilot Screen. Fragment molecule plates were screened in 96-well plates at 5 μM in single-point format in the Aurora A Kinase assay as described above. All reaction mixtures resulting in greater than or equal to 50% inhibition of enzymatic activity were then tested in an IC50 assay. Original screening samples were used for follow-up IC50 experiments. LC/MS analysis was conducted on fragment assembly screening plates to confirm presence of desired test ligand in the reaction mixture. Confirmed hits were then resynthesized as purified thioether compounds and tested in an IC50 assay.
`O=C(NCCSSCCNc1ncnc2ccsc12)Nc1cccc(C(F)(F)F)c1` [Compound 3] gave a pIC50 of 5.80.
Compound `SCCNc1ncnc2ccsc12` [Compound 4] has a pIC50 of 4.62.
With `NCCSSCCN` [Cystamine, reference compound] the pIC50 was 4.26.
Work on `NCCSSCCNC(=O)Nc1cccc(C(F)(F)F)c1` [Compound 5] yielded a pIC50 of 4.52.

Same assay, conditions: Table 2; thioether chemistry: bait, test fragment, unpurified reaction mixtures and purified ligand; relative to concentration of fragment molecule; read-out: IC50
`NCCSSCCc1cnc(NC(=O)Nc2cccc(C(F)(F)F)c2)s1` [Compound 8] was tested, and the pIC50 was 5.00 and 4.91.
`Clc1ncnc2ccsc12` [Compound 7] showed a pIC50 of 4.55.
In the case of `NCCSSCCN` [Cystamine, reference compound], the pIC50 was less than 3.30.

Same assay, conditions: Table 4; purified resynthesized molecule; read-out: Resynthesized Hit/Analog IC50
`COc1ccc(C(=O)Nc2ccccc2)cc1NC(=O)CCSCc1cnc2[nH]ccc2c1` [Compound 16] gave a pIC50 of 6.82.
`COc1ccc(C(=O)Nc2ccccc2)cc1NC(=O)CCSc1ncnc(N)c1Br` [Compound 15] showed a pIC50 of 6.92.
In the case of `Nc1ncnc(NCCc2cnc(NC(=O)Nc3cccc(C(F)(F)F)c3)s2)c1Br` [Compound 18], the pIC50 was 8.30.
`O=C(NCCSc1ncnc2[nH]ccc12)Nc1ccc(C(=O)O)c(O)c1` [Compound 17] showed a pIC50 of 6.40.

Same assay, conditions: Table 5; bait, fragment and disulfide-assembled molecules; relative to concentration of fragment molecule; read-out: IC50
Compound `CCCCNC(=O)c1cccc(NC(=O)CCCCCNc2ncnc3ccsc23)c1` [Compound 21] has a pIC50 of 5.39.
In the case of `O=C(NCCCCCNc1ncnc2ccsc12)c1sc(C(F)(F)F)cc1O` [Compound 23], the pIC50 was 4.94.
With `NCCSSCCNC(=O)c1sc(C(F)(F)F)cc1O` [Compound 22] the pIC50 was less than 4.30.
`CCCCNC(=O)c1cccc(NC(=O)CSSCCN)c1` [Compound 20] gave a pIC50 of less than 4.30.

Same assay, conditions: thioether chemistry; product mixture and purified compound; read-out: IC50
In the case of `O=C(Nc1cccc(C(F)(F)F)c1)Nc1ncc(CCSc2ncnc3ccsc23)s1` [Compound 6, reference compound], the pIC50 was 8.30.

These compounds were tested against T3, ALK (Invitrogen PV3867) (Homo sapiens, UniProt Q9UM73) (assay: ALK kinase assay (LanthaScreen time-resolved FRET, 10 μM ATP)). Conditions: Table 7; hit fragment alone, no bait; read-out: Fragment IC50.
T3 construct: purchased Invitrogen PV3867
T3 sequence (Q9UM73 1058-1620 limits assumed): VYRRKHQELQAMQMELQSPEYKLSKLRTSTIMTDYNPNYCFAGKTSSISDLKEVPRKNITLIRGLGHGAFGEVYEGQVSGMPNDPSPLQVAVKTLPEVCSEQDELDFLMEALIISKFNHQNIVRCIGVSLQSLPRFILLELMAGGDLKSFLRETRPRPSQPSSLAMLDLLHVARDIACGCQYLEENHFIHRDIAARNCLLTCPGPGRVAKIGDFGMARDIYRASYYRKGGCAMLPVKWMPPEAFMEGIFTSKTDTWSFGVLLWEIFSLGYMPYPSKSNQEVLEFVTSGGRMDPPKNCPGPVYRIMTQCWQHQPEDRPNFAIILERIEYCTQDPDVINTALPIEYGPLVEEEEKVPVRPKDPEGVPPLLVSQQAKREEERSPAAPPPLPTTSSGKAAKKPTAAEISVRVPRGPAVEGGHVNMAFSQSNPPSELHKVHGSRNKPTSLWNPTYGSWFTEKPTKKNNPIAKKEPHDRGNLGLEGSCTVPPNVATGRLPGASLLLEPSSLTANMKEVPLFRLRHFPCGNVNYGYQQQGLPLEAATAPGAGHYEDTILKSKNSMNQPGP
Assay type: biochemical
Procedure: ALK kinase assays were conducted using the LanthaScreen® time-resolved FRET assay format (Invitrogen, Carlsbad Calif.). Assay conditions consisted of 15 pM (picomolar) ALK (Invitrogen PV3867), 10 μM ATP, and 100 nM substrate peptide FL-polyGT (Invitrogen PV3610) diluted in assay buffer (10 mM Tris pH 7.2, 10 mM MgCl, 1 mM DTT, 100 μM Na2OVO4. 0.01% Triton® X-100, 0.05% Casein). Control compounds and fragment-assembly reaction mixtures were diluted in DMSO to generate stock compounds at 20-fold final concentration. For IC50 assays, fragment-assembly reaction mixtures were titrated three-fold in DMSO and diluted 20-fold into the assay mixture. As a positive control for enzyme activity, the reaction mixture was added to DMSO, and, as a negative control for enzyme activity, the reaction mixture was added to staurosporine (Sigma) at a final concentration of 20 μM.
Fragment Library Pilot Screen. Fragment-assembly reaction mixtures were screened in 384-well plates at a concentration approximating 5-fold lower than that of the purine-mimetic bait fragment IC50 value, in single-point format in the ALK assay as described above. Reaction mixtures resulting in greater than or equal to 50% inhibition of enzymatic activity were then confirmed in single-point format, or tested in an IC50 assay. LC/MS analysis was conducted on fragment assembly screening plates to confirm the presence of desired test ligand in the reaction mixture.
Work on `O=C(CS)Nc1ccc(Cl)cc1C(F)(F)F` yielded a pIC50 of 5.79.
`O=C(CS)N1CCCN(c2nc3ccc(Cl)cc3s2)CC1` [Compound 32] showed a pIC50 of 5.70.
`COc1cccc(C)c1NC(=O)NCCS` was tested, and the pIC50 was 5.18.

Same assay, conditions: read-out: IC50
For `CC(C)S(=O)(=O)c1ccccc1Nc1nc(NCCS)ncc1Cl` [Compound 27], the pIC50 was 6.60.
Compound `CNc1ncc(Cl)c(CCl)n1` [Compound 29] has a pIC50 of 5.11.
`CNc1ncc(Cl)c(Nc2cccc(CCl)c2)n1` [Compound 28] was tested, and the pIC50 was 5.43.
`COc1ccccc1Nc1ncc(Cl)c(NCCS)n1` [Compound 26] showed a pIC50 of 6.30.
